Source: US8783089B2, “Device and method for determining the properties of aerosol formulations” (Boehringer Ingelheim International GmbH, priority 2008, dated 2014)

Experiment: Characterisation of the air-liquid release system (Franz diffusion cell, online UV detection at 225 nm) with dissolved active substance
Assay type: physicochemical
Experimental: Above the membrane 6 an air chamber is formed as the second compartment 12, and the entire diffusion cell 13 (Franz cell) is surrounded by thermal insulation 9 and can be temperature controlled in the desired manner by means of a hotplate 10. The release medium is mixed by means of a magnetic stirrer 14. In order to characterise the system, first of all salbutamol sulphate, as the sample active substance, was added directly in the form of a dilute solution to the release medium (PBS, phosphate buffered saline) and measured at 225 nm in the photometer. […] Salbutamol sulphate applied to the membrane 6 reaches the maximum concentration after about ten minutes. This means that the membrane 6 forms a diffusion barrier for about six minutes. The total system has a reaction time of about ten minutes, i.e. changes in concentration caused by the release of active substance are detected with a ten minute delay. On the timescale of a typical release test over 24 hours this delay can be disregarded.

time until maximum concentration is reached (applied to the membrane 6 (regenerated cellulose), release medium PBS, 225 nm): about ten | incubation time until the active substance concentration reaches a plateau (dilute solution added directly to the release medium (PBS), measured at 225 nm): about four
Substance: salbutamol sulphate
